According to patent publication US20260248791A1, “METHODS FOR TREATING DERMATOMYOSITIS WITH BREPOCITINIB” (priority 2023, published 2026):

Columns and labels:
[1] = tested on: cytokine signaling pathways that engage TYK2 and/or JAK1, including IFNα, IFNg, IL-12, and IL-23; test: Cytokine signaling in human whole blood; assay type: cell-based; details: IL-12, IL-23
[2] = tested on: Human skeletal muscle myoblasts (HSMM) differentiated into myotubes; test: IFN-I induced myotube damage (myosin 4 surface area); assay type: cell-based; details: for mean myosin surface area: 48 hours IFN-I
Description: (§1) Timeline for Brepocitinib efficacy evaluation for IFN-I induced pathological changes characteristic of DM in vitro. As shown in the schematic image of FIG. 1, human skeletal muscle myoblasts (HSMM) were cultured and differentiated into myotubes then treated with vehicle control or IFN-I (recombinant Human IFN alpha A and Human IFN alpha D) to induce cellular damage. Myotubes were also preincubated for 1 hour with Brepocitinib (1 μM or 130 nM, the latter is equivalent to the average free plasma concentration after administration of 30 mg once-daily) prior to IFN-I treatment. Immunofluorescence staining followed by image analysis to determine myosin 4 surface area were conducted after 48 hours of IFN-I treatment. Human dermal microvascular endothelial cells (HMEC-1) were cultured and, once vascular networks were established, cells were treated with IFN-I or vehicle control. Cells were also preincubated for 1 hour with Brepocitinib. Under light microscopy, 9 hours after treatment, the number of nodes, master segment length, and total mesh area were analyzed.
Human skeletal muscle myoblasts (Lonza, CC-2580) were cultured in SkGM™-2 media (Lonza, CC-3245) and sub-cultured using ReagentPack™ Subculture Reagents (Lonza, CC-5034). They were then differentiated into myotubes by culturing in differentiation medium [DMEM/F12+2% Horse serum (Thermofisher, 16050122)] for 3-5 days until most of the myoblast cells differentiated into multinucleated myotubes. The myotubes were then preincubated with vehicle or Brepocitinib prior to type I interferon (R&D, 11200-2) exposure at concentrations (FIG. 7). After 48 hours of treatment, cells were fixed and stained with Myosin 4 Monoclonal antibody (MF20; Thermofisher, 14-6503-82) and Hoechst for nuclei visualization. The effect on total myotube surface area was evaluated via fluorescent image analysis. […] The effect of type I IFN exposure±Brepocitinib treatment on the number of nodes, master segment length, and total mesh area was evaluated by taking bright-field images every 16 hours.

[3] = tested on: Human dermal microvascular endothelial cells (HMEC-1); test: IFN-I induced endothelial cell damage (vascular network); assay type: cell-based; details: Brepocitinib preincubation
Description: as §1, with “Human dermal microvascular endothelial cells (HMEC-1) were cultured and, once vascular networks were established, cells were treated with IFN-I or vehicle control. Cells were also preincubated for 1 hour with Brepocitinib.” left out
Human skeletal muscle myoblasts (Lonza, CC-2580) were cultured in SkGM™-2 media (Lonza, CC-3245) and sub-cultured using ReagentPack™ Subculture Reagents (Lonza, CC-5034). […] The effect on total myotube surface area was evaluated via fluorescent image analysis. […] The effect of type I IFN exposure±Brepocitinib treatment on the number of nodes, master segment length, and total mesh area was evaluated by taking bright-field images every 16 hours.

[4] = Dose-response across Phase 2 studies; assay type: in vivo, human; details: normalized responder rate vs average daily dose across Phase 2 studies
psoriatic arthritis = test: Phase 2 study in psoriatic arthritis (ACR20); assay type: in vivo, human; details: 30 mg; after 4 weeks; psoriatic arthritis patients
From the text: (§2) As part of the clinical development program for oral Brepocitinib, a number of Phase 1 and Phase 2 studies have been completed or have a report in preparation. […] The multiple autoimmune diseases for which there is observed clinical efficacy data for Brepocitinib have mechanistic pathway similarities to DM. For example, psoriasis is driven by IL-17, which is downstream of IL-12 and IL-23 signaling via TYK2 and/or JAK1, and alopecia areata is characterized by excessive activity of IFN-γ, a type II interferon which also signals via JAK1. Of note, dose dependent reductions in IP-10 (CXCL10), an IFN-γ inducible gene, have been observed in Brepocitinib clinical studies, separating from placebo at doses ≥10 mg QD. Importantly, in these phase 2 studies, clinical response with Brepocitinib treatment rapidly separates from placebo. For example, in the phase 2 study assessing Brepocitinib's efficacy in psoriatic arthritis, Brepocitinib 30 mg achieved a 52% ACR20 response rate after 4 weeks compared to a 19% response rate in placebo patients.

IP-10 (CXCL10) = test: IP-10 reduction in clinical studies; assay type: in vivo, human; details: dose dependent reductions in clinical studies
From the text: as §2

[5] = tested on: psoriatic arthritis, plaque psoriasis, ulcerative colitis, alopecia areata, and hidradenitis suppurativa; test: 5 completed Phase 2 placebo-controlled studies; assay type: in vivo, human; details: each of 5 placebo-controlled Phase 2 studies
From the text: Primary efficacy endpoints with Brepocitinib. […] These clinical data, along with the overlapping pathogenic cytokine profile, support the rationale for evaluating Brepocitinib in DM.

[6] = Solubility across physiological pH range; assay type: physicochemical
[7] = Dissolution from immediate-release tablets; assay type: physicochemical; details: in 30 minutes; 30 mg tablet, pH 6.8 phosphate buffer, USP Apparatus II, 75 rpm
Description: Dissolution: […] An illustrative dissolution profile for a prototype 30 mg tablet in pH 6.8 phosphate buffer using USP Apparatus II, 75 rpm is shown in FIG. 6. […] The final to-be-marketed product will be tested in all three-pH media for confirmation of rapid dissolution. The to-be-marketed product will be developed at a commercial manufacturing site that is to be decided and will be different from that used to manufacture the current clinical trial material.

Broad off-target panel = details: functional assays, ligand binding, enzyme activity
transgenic (Tg) mice = test: 6-month carcinogenicity study in Tg mice; assay type: in vivo; details: 6-month Tg mouse study
From the text: (§3) Immunotoxicity and phototoxicity studies have also been conducted. Carcinogenicity studies in Tg mice (6 month) and rats (2 year) have been completed. […] Brepocitinib-related findings consistent with the mechanism of action (lower thymus weight and cellularity, infection) or not relevant to humans (exacerbation of chronic progressive nephropathy in the kidney) were also observed. Fertility studies in rats have been completed.

male rat = test: Fertility study in rats; assay type: in vivo; details: 55 mg/kg/day
From the text: as §3

[8] = tested on: cytokine-induced phosphorylation of STATs in human PBMCs and whole blood; test: Cytokine-induced STAT phosphorylation; assay type: cell-based
From the text: (§4) Pharmacology. Brepocitinib inhibits various TYK2- and JAK1-dependent functions in different cell types such as cytokine-induced phosphorylation of signal transducer and activator transcriptions (STATs) in human peripheral blood mononuclear cells (PBMCs) and whole blood; differentiation of T helper (Th) 1, Th17, and B cells, interleukin (IL)-12-induced IFNγ production in human PBMCs; and IFN-1 gene signature induced by immune complexes in human PBMCs.

[9] = tested on: T helper (Th) 1, Th17, and B cells; test: Differentiation of Th1, Th17 and B cells; assay type: cell-based
From the text: as §4

human PBMCs [10] = test: IL-12-induced IFNγ production; assay type: cell-based
From the text: as §4

human PBMCs [11] = test: IFN-1 gene signature induced by immune complexes; assay type: cell-based
From the text: as §4

[12] = tested on: rat adjuvant-induced arthritis; test: Rat adjuvant-induced arthritis disease model; details: in vivo
From the text: as §4

[13] = Tolerability in clinical studies to date; assay type: in vivo, human
From the text: Brepocitinib is being evaluated in a double-blind, randomized, placebo-controlled Phase 3 study in DM (NCT0543726; VALOR Study). With a planned enrollment of 225 subjects, the VALOR Study is the largest well-controlled trial in DM to date. Adult patients with definite or probable idiopathic inflammatory myopathy (IIM), who meet the subclassification criteria for DM, have both muscle and skin disease involvement (classic DM), and are receiving (or are not responsive to or are intolerant to) corticosteroids and/or immunomodulatory/immunosuppressive therapies are eligible to enroll. The primary endpoint is the total improvement score (TIS) at week 52. The TIS is a composite endpoint based on the following six CSM scores: the Physician Global Disease Activity, the Patient Global Disease Activity, the Health Assessment Questionnaire, MMT-8, Extramuscular Disease Activity, and muscle enzymes. To evaluate the steroid-sparing effect of Brepocitinib, participants using glucocorticoids at baseline must taper to an oral glucocorticoid dose of prednisone≤5 mg/day (or equivalent) by week 36.

[14] = human
[15] = human, plasma, 2 μM
CYP3A4/5 = details: human
CYP1A2 = CYP1A2 (Homo sapiens, UniProt P05177)
CYP1A2, sequence (P05177 whole entry): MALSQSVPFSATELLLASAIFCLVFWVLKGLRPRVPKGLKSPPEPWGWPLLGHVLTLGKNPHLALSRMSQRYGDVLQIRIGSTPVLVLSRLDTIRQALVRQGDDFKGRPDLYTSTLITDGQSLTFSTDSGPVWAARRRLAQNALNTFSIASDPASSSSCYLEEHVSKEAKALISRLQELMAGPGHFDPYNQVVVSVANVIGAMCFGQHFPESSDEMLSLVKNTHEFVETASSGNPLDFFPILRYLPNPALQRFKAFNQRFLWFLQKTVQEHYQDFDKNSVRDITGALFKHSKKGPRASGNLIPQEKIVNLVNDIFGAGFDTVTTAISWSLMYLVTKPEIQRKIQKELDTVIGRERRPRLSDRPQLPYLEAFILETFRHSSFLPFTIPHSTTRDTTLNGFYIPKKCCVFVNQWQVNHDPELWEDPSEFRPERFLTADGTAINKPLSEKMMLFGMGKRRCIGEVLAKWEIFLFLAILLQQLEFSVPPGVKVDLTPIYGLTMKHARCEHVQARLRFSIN

clinical = details: human, in vivo
[16] = molecular target: P-glycoprotein (P-gp; MDR1; ABCB1) (Homo sapiens, UniProt P08183); test: P-glycoprotein substrate status
P-glycoprotein (P-gp; MDR1; ABCB1), sequence (P08183 whole entry): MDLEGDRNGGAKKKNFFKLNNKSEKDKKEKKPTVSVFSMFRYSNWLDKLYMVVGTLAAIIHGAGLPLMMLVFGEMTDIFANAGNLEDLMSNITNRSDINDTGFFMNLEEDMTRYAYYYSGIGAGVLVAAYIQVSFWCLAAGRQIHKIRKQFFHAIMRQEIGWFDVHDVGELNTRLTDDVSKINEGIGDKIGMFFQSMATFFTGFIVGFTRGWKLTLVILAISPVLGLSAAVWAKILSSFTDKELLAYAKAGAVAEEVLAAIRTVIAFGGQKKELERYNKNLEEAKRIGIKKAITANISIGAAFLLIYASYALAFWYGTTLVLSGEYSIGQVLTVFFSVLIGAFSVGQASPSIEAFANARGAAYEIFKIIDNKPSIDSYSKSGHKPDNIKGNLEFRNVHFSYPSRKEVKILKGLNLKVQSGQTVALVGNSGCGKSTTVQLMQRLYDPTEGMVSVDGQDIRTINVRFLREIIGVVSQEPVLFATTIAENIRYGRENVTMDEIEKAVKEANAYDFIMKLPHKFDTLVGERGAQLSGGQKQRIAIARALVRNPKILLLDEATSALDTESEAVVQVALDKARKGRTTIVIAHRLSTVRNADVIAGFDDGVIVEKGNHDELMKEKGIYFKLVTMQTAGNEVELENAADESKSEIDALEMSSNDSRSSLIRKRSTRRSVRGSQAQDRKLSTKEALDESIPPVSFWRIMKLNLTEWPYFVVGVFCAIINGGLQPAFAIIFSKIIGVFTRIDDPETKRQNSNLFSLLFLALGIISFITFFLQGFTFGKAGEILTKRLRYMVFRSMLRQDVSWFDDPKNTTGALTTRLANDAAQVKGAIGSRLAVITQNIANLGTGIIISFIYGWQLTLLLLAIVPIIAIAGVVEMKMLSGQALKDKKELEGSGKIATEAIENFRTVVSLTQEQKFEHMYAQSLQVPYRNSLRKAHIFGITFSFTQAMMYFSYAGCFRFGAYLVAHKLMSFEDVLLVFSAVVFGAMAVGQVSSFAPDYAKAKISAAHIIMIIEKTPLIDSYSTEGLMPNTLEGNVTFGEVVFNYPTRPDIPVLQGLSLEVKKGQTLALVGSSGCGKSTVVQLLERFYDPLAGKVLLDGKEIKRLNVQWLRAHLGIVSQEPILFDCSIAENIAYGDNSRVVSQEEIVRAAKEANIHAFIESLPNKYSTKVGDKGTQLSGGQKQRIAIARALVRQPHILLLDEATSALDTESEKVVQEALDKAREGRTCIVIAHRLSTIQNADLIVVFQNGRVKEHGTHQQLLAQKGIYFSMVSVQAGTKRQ

P-gp = P-gp (Homo sapiens, UniProt P08183); test: In vitro transporter inhibition, P-gp
P-gp, sequence (P08183 whole entry): as above

[17] = molecular target: breast cancer resistance protein (BCRP) (Homo sapiens, UniProt Q9UNQ0); test: In vitro transporter inhibition, BCRP
breast cancer resistance protein (BCRP), sequence (Q9UNQ0 whole entry): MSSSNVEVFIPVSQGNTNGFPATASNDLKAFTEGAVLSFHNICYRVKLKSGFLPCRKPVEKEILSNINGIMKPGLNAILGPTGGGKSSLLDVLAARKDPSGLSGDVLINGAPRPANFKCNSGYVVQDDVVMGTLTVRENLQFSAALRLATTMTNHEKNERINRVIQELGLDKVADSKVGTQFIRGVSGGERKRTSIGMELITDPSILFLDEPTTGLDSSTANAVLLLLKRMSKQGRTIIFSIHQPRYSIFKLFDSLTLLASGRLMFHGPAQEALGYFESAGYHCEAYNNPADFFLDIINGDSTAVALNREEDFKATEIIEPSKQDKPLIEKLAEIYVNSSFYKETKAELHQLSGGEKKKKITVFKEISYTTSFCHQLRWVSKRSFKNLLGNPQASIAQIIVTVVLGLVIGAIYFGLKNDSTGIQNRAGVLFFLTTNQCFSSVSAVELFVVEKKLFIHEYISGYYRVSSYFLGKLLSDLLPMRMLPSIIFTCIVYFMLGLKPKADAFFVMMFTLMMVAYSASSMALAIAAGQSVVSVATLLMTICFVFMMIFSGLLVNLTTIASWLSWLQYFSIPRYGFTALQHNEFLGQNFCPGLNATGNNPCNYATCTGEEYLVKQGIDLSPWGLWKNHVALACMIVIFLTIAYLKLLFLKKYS

[18] = molecular target: organic cation transporter (OCT) 1 (Homo sapiens, UniProt O15245); test: In vitro transporter inhibition, OCT1
organic cation transporter (OCT) 1, sequence (O15245 whole entry): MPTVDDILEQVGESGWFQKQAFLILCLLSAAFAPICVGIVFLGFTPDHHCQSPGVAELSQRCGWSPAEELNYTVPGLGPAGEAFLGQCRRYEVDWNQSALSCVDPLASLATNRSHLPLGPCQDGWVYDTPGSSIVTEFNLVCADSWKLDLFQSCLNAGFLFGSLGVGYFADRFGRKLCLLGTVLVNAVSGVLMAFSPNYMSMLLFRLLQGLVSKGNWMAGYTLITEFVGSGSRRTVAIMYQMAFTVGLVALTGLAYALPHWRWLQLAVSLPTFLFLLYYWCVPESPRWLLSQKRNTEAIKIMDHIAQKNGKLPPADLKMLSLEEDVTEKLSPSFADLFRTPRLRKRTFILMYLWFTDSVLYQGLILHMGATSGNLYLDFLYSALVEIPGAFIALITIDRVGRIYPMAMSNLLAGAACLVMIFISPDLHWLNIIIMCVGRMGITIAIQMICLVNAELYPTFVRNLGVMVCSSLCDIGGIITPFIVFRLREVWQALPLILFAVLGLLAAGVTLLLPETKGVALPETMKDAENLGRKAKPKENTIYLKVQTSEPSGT

OCT2 = OCT2 (Homo sapiens, UniProt O15244); test: In vitro transporter inhibition, OCT2
rats = test: Chronic oral toxicology study in rats; details: end of study exposure
[19] = molecular target: multidrug and toxin extrusion (MATE) 1 (Homo sapiens, UniProt Q96FL8); test: In vitro transporter inhibition, MATE1
multidrug and toxin extrusion (MATE) 1, sequence (Q96FL8 whole entry): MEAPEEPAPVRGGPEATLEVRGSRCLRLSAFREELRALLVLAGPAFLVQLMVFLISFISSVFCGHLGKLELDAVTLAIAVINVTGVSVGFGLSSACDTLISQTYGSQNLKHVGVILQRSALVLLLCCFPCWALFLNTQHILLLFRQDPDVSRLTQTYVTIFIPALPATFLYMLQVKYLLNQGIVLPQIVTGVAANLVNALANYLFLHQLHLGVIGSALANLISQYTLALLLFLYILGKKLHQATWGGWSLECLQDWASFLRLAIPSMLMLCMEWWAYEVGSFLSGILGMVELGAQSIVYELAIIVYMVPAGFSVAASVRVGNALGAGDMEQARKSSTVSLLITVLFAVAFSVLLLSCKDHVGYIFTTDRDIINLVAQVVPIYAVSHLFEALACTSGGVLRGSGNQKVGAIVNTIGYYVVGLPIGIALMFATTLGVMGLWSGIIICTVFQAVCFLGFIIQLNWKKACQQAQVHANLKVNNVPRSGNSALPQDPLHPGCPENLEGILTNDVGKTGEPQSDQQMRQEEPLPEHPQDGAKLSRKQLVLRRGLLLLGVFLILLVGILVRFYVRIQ

cynomolgus monkeys = test: Chronic oral toxicology study in monkeys; details: end of study exposure
[20] = Cardiovascular safety pharmacology studies; details: oral administration
[21] = In vitro profiling for metabolic drug-drug interactions; details: direct inhibition and induction mechanisms

## Cn1cc(Nc2nccc(N3C[C@H]4CC[C@@H](C3)N4C(=O)[C@@H]3CC3(F)F)n2)cn1 [Brepocitinib, [(1S)-2,2-difluorocyclo-propyl][(1R,5S)-3-{2-[(1-methyl-1H-pyrazol-4-yl)amino]pyrimidin-4-yl}-3,8-diazabicyclo[3.2.1]oct-8-yl]methanone]
[1]
  Inhibition of cytokine signaling pathways implicated in DM: inhibited
[2]; 130 nM preincubation 1 hour
  mean myosin surface area: 94.1 % of the vehicle control
[2]; 1 μM preincubation 1 hour
  mean myosin surface area: 100 % of the vehicle control
[2]; Brepocitinib preincubation, 130 nM and 1 μM
  IFN-I induced damage in myotubes: almost completely prevented
[3]
  IFN-I induced damage in endothelial cells: almost completely prevented
[4]
  dose resulting in 50% maximal response: 15 mg QD
Psoriatic arthritis
  ACR20 response rate: 52%
IP-10 (CXCL10)
  doses at which IP-10 (CXCL10) reduction separates from placebo: ≥ 10 mg QD
[5]
  Primary efficacy outcome in Phase 2 studies: clinically meaningful and statistically significant results
[6]
  Solubility in 250 mL of the media: fully soluble
[6]; across the physiological pH range
  Solubility: highly soluble
[7]
  dissolution from immediate-release (IR) tablets: > 85%
Broad off-target panel
  off-target pharmacology potential: low potential for off-target pharmacology
Transgenic (Tg) mice
  neoplastic findings: No Brepocitinib-related neoplastic findings
Male rat; highest dose tested
  effects on male rat fertility: No adverse effects
Male rat; male rat fertility
  margin to clinical exposures at highest dose tested: > 50 fold
[8]
  cytokine-induced phosphorylation of STATs: inhibits
[9]
  differentiation of Th1, Th17, and B cells: inhibits
Human PBMCs [10]
  IL-12-induced IFNγ production: inhibits
Human PBMCs [11]
  IFN-1 gene signature induced by immune complexes: inhibits
[12]
  effect in rat adjuvant-induced arthritis: anti-inflammatory effects
[13]
  tolerability: generally well-tolerated
human, in vivo
  radiolabeled dose recovered as unchanged Brepocitinib in the urine: Approximately 8%
human, in vivo, po
  radiolabeled dose recovered as Brepocitinib metabolites in the urine: Approximately 80%
Not told
  Permeability: highly permeable
[14]; in vivo
  dose recovered in urine: ≤ 16%
  effect of food (high-fat meal) on absorption: does not have a clinically relevant effect on the extent of absorption
  fraction absorbed: approximately 100%
  increase of AUC(0-∞) and Cmax with dose: approximately dose-proportional
  time to steady state: ≤ 8 days
[14]; not told, po
  Permeability class according to the BCS criteria: high-permeability compound
[15]
  fraction of unbound drug: 0.609
CYP3A4/5
  in vitro fraction metabolized: 0.77
CYP1A2
  in vitro fraction metabolized: 0.14
clinical
  half-life: 4 to 8 h
clinical; absolute bioavailability
  bioavailability: ~75%
clinical; bioavailability of tablets relative to solution
  bioavailability: ~96%
[16]
  P-gp substrate status: substrate
P-gp
  In vitro inhibition of P-gp: inhibition
[17]
  In vitro inhibition of BCRP: inhibition
[18]
  In vitro inhibition of OCT1: inhibition
OCT2
  In vitro inhibition of OCT2: inhibition
rats
  AUC exposure margin, NOAEL to clinical exposure of 30 mg QD: 54 fold
[19]
  In vitro inhibition of MATE1: inhibition
Cynomolgus monkeys
  AUC exposure margin, NOAEL to clinical exposure of 30 mg QD: 7.8 fold
[20]
  cardiovascular safety pharmacology findings: effects on blood pressure, heartrate, and corrected QT interval (QTc) interval were observed
[21]
  potential to be a perpetrator of metabolic drug-drug interactions: low potential
